Assay results as given in patent US20150121570A1, “GENE […] DROUGHT STRESS TOLERANCE AND T[…] WITH THE SAME” (priority 2013, published 2015).

Key:
Format in all cases: in vivo, Arabidopsis thaliana
[1] = tested on: stomata of mature leaves of wild-type and atamdr mutant plants; assay: ABA-induced stomatal closure (stomatal aperture measurement); settings: 10 μm ABA for 2 h; for stomatal aperture (the ratio of width to length): 4-week-old leaves
Experimental: (§1) FIGS. 4a to 4c represent stomatal aperture and H2O2 production of wild-type, atamdr plants in response to different concentrations of ABA. […] Light-grown, 4-week-old mature leaves of wild-type and atamdr plants were incubated in stomatal opening solution for 2 h and transferred to solutions containing the 10 μM ABA for 2 h. Stomata on the abaxial surface were observed by light microscopy. […] Leaves from wild-type, atamdr plants were treated with 0 or 100 μM ABA for 2 h and transferred to 100 μg/mL DAB (3,3′-diaminobenzidine-4HCl) solution overnight. The presence and level of H2O2 in the leaves were visualized as a dark brown color.
Mature leaves of light-grown, 4-week-old wild-type and atamdr mutant plants were used for the observation of mature stomata. Detached leaves were incubated in stomatal opening solution (10 mM MES-KOH, […] CaCl2, 10 mM KCl) for 2 h and then transferred to stomatal opening solution supplemented with 0 or 10 μM ABA for 2 h. Subsequently, epidermal strips were mounted on glass slides and observed with a light microscope.
Mature leaves of light-grown, 4-week-old wild-type and atamdr mutant plants were detached and incubated in stomatal opening solution and then transferred to stomatal opening solution supplemented with various concentrations of ABA (0 and 10 μM) for 2 h. […] Stomatal aperture of wild-type plants treated with 10 μm ABA was approximately 0.09 which was 2-fold closed than that of mutant, while stomatal aperture of atamdr mutant treated with 10 μm ABA was approximately 0.175, which was 1.94-fold compared to that of wild-type plants.

[2] = tested on: mature leaves of wild-type and atamdr plants; assay: ABA-induced H2O2 production analyzed by DAB staining; settings: 0 or 100 μM ABA
Experimental: as §1
To investigate the accumulation of H2O2, light-grown, 4-week-old mature leaves of wild-type (WT), atamdr plants were incubated in stomatal opening solution for 2 h and treated with 0 or 100 μM ABA. Leaves were transferred to 100 μg/mL DAB (3,3′-diaminobenzidine-4HCl) solution overnight, and washed and fixed by 96% ethanol. Leaves were observed after complete chlorosis (Luis David Maldonado-Bonilla et al.; Eur J Plant Pathol. 121:439449, 2008).
To investigate the accumulation of H2O2, light-grown, 4-week-old mature leaves of wild-type and atamdr plants were treated with 0 or 100 μM ABA, and stained with 100 ng/mL DAB (3,3′-diaminobenzidine-4HCl) solution in dark.

AtAIRP2 gene expression = assay: Gene expression after ABA treatment by RT-PCR; settings: atamdr mutant, 300 μM ABA hormone, 1 hour and 3 hours
Experimental: FIGS. 2a to 2d represent the expression patterns of AtAMDR in response to various abiotic stress conditions. Total RNA was prepared from light-grown, 7-day-old Arabidopsis seedlings, which had been treated with drought (FIG. 2a), cold (FIG. 2b), high salinity (300 mM NaCl) (FIG. 2c) or 100 μM ABA (FIG. 2d). Induction patterns of AtAMDR were investigated by RT-PCR. RD29A was used as representative control gene for drought, cold and salt stress, and Rab18 was used as control gene for ABA.
Total RNA was prepared from 7-day-old Arabidopsis seedlings, which had been treated with drought (1-2 h), cold (4° C. for 6-12 h), high salinity (300 mM NaCl for 1-3 h) or 100 μM ABA (1-3 h). Induction patterns of AtAMDR were investigated by RT-PCR.
In order to determine expressions of the AtAMDR gene to drought stress, the wild type Arabidopsis thaliana seedlings which were grown on medium for 2 weeks were exposed in the air, and sampled after 1 hour and 2 hours. In order to determine expressions of the AtAMDR gene to salt stress, the wild type Arabidopsis thaliana seedlings which were grown on medium for 2 weeks were treated with 300 mM sodium chloride, and sampled after 1 hour and 3 hours. […]
The AtAIRP2 gene expressions in various abiotic stresses were analyzed by RT-PCR. […]

For CC1=CC(=O)CC(C)(C)[C@@]1(O)/C=C/C(C)=C\C(=O)O [ABA, abscisic acid], which “stomatal aperture of atamdr mutant compared to that of wild-type plants” value [1] is on record?
The value was 1.94 fold.

And the “stomatal aperture (the ratio of width to length)” value ([1]; atamdr mutant)?
Its value is “approximately 0.175”.

And the “stomatal aperture (the ratio of width to length)” value ([1]; wild-type plants)?
Its value is “approximately 0.09”.

What about the “accumulation of H2O2” value ([2]; atamdr leaves) of the same compound?
The value was “significantly delayed”.

What about the “accumulation of H2O2” value ([2]; wild-type leaves) of the same compound?
The value was “drastically arisen”.

What about the AtAIRP2 gene expression (AtAIRP2 gene expression) of the same compound?
Its AtAIRP2 gene expression is “not affected”.
